According to US20050187184A1, “Antineoplastic combinations” (Wyeth, priority 2001, published 2005):
Structures can show the parent of a compound that is named as a salt.

How the values were obtained:
human pancreatic tumors = settings: several human pancreatic tumors in nude mice; cited from earlier work
[1] = system: human tumor xenografts of diverse histological types; settings: nude mice; cited from earlier work
[2] = system: human glioblastoma cell line; settings: in vitro; cited from earlier work
breast cancer lines = settings: one of two breast cancer lines studied in vivo; cited from earlier work
[3] = system: histologically diverse tumor cells; settings: cited from earlier work
orthotopic glioma = settings: nude mice; cited from earlier work
human colon line GC3 = assay: human colon (GC3) mouse xenograft test procedure; format: in vivo; settings: gemcitabine on days 1, 4 and 8 in the first cycle
Description: Female CBA/CaJ mice (Jackson Laboratories, Bar Harbor, Me.), 4 weeks of age, were immune-deprived by thymectomy, followed 3 weeks later by whole-body irradiation (1200 cGy) using a ^137Cs source. Mice received 3×10^6 nucleated bone marrow cells within 6-8 h of irradiation. Tumor pieces of approximately 3 mm^3 were implanted in the space of the dorsal lateral flanks of the mice to initiate tumor growth. Tumor-bearing mice were randomized into groups of seven prior to initiating therapy. Mice bearing tumors each received drug when tumors were approximately 0.20-1 cm in diameter. Tumor size was determined at 7-day intervals using digital Vernier calipers interfaced with a computer. Tumor volumes were calculated assuming tumors to be spherical using the formula [(□/6)×d^3], where d is the mean diameter. CCI-779 was given on a schedule of 5 consecutive days for 2 weeks with this cycle repeated every 21 days for 3 cycles. […] The schedule of the other chemotherapy drug for each study was as follows: • Gemcitabine on days 1, 4, 8 in cycle 1 only The combination of CCI-779 and gemcitabine was evaluated in a human colon (GC3) mouse xenograft test procedure. In this test procedure, CCI-779 was given daily ×5 for 2 consecutive weeks every 21 days for 3 cycles and gemcitabine given on days 1, 4, and 8 in the first cycle only.

| SMILES | tumor growth (human pancreatic tumors) | activity against human tumor xenografts [1] | sensitivity of gliomas [1] | growth factor (platelet-derived)-induced stimulation [2] | tumor growth (breast cancer lines) | growth of tumor cells in vitro ([3]; CNS cancer, leukemia (T-cell), breast cancer, prostate cancer and melanoma lines among the most sensitive) | cell cycle effect ([3]; in vitro) | activity in orthotopic glioma model (orthotopic glioma) | tumor response in the first cycle (human colon line GC3) |
| --- | --- | --- | --- | --- | --- | --- | --- | --- | --- |
| CO[C@H]1C[C@@H]2CC[C@@H](C)[C@@](O)(O2)C(=O)C(=O)N2CCCC[C@H]2C(=O)O[C@H]([C@H](C)C[C@@H]2CC[C@@H](OC(=O)C(C)(CO)CO)[C@H](OC)C2)CC(=O)[C@H](C)/C=C(\C)[C@@H](O)[C@@H](OC)C(=O)[C@H](C)C[C@H](C)/C=C/C=C/C=C/1C [CCI-779, Rapamycin 42-ester with 3-hydroxy-2-(hydroxymethyl)-2-methylpropionic acid] | inhibited | has activity | particularly sensitive | markedly suppressed | inhibited | inhibit the growth | arrested cells in the G1 phase | active | – |
| Nc1ccn([C@@H]2O[C@H](CO)[C@@H](O)C2(F)F)c(=O)n1 [gemcitabine, 2′-deoxy-2′,2′-difluorocytidine monohydrochloride ((beta)-isomer)] | – | – | – | – | – | – | – | – | tumor regression |
